Measured values taken from patent US20240409536A1, “COMPOUNDS AND METHODS FOR MODULATING SPLICING” (REMIX THERAPEUTICS INC., priority 2021, published 2024).
Read-outs that look alike come from different tables or passages of the source.

Tests used:
MYB mRNA [1] = assay: Splicing RT-qPCR assay, MYB canonical (CJ) and alternative (AJ) junction mRNA; assay type: cell-based; conditions: Homo sapiens, A673 or K562 cells, 24 hours
Method: (§1) Compounds described herein were used to modulate RNA transcript abundance in cells. The expression of a target mRNA was measured by detecting the formation of an exon-exon junction in the canonical transcript (CJ). A compound mediated exon-inclusion event was detected by observing an increase in formation of a new junction with an alternative exon (AJ). Real-time qPCR assays were used to detect these splicing switches and interrogate the potency of various compounds towards different target genes. A high-throughput real time quantitative PCR (RT-qPCR) assay was developed to measure these two isoforms of the mRNA (CJ and AJ) for exemplary genes, such as HTT, SMN2, and MYB, together with a control housekeeping gene, GAPDH or GUSB or PPIA, used for normalization. Briefly, the A673 or K562 cell line was treated with various compounds described herein (e.g., compounds of Formula (I), (I), or (III)). After treatment, the levels of the HTT, MYB, or SMN2 mRNA targets were determined from each sample of cell lysate by cDNA synthesis followed by qPCR.
(§2) • Cells-to-CT 1-step kit: ThermoFisher A25602, Cells-to-CT lysis reagent: ThermoFisher 4391851C, TaqMan™ Fast Virus 1-Step Master Mix: ThermoFisher 4444436 • GAPDH: VIC-PL, ThermoFisher 4326317E (Assay: Hs99999905_ml)—used for K562/suspension cell lines • GUSB: VIC-PL, ThermoFisher 4326320E (Assay: Hs99999908_ml)—used for K562/suspension cell lines • PPIA: VIC-PL, ThermoFisher 4326316E (Assay: Hs99999904_ml)—used for A673/adherent cell lines
(§3) The A673 cell line was cultured in DMEM with 10% FBS. Cells were diluted with full growth media and plated in a 96-well plate (15,000 cells in 100 ul media per well). The plate was incubated at 37° C. with 5% CO2 for 24 hours to allow cells to adhere. An 11-point 3-fold serial dilution of the compounds was made in DMSO then diluted in media in an intermediate plate. Compounds were transferred from the intermediate plate to the cell plate with the top dose at a final concentration of 10 uM in the well. Final DMSO concentration was kept at or below 0.25%. The cell plate was returned to the incubator at 37° C. with 5% CO2 for an additional 24 hours.
(§4) The K562 cell line was cultured in IMDM with 10% FBS. For K562, cells were diluted with full growth media and plated in either a 96-well plate (50,000 cells in 50 uL media per well) or a 384-well plate (8,000-40,000 cells in 45 uL media per well). An 11-point 3-fold serial dilution of the compounds were made in DMSO then diluted in media in an intermediate plate. Compound was transferred from the intermediate plate to the cell plate with the top dose at a final concentration of 10 uM in the well. Final DMSO concentration was kept at or below 0.25%. Final volume was 100 uL for 96-well plate and 50 uL for 384-well plate. The cell plate was then placed in an incubator at 37° C. with 5% CO2 for 24 hours.
(§5) The cells were then gently washed with 50 uL-100 uL cold PBS before proceeding to addition of lysis buffer. 30 uL-50 uL of room temperature lysis buffer with DNAse I (and optionally RNAsin) was added to each well. Cells were shaken/mixed thoroughly at room temperature for 5-10 minutes for lysis to take place and then 3 uL-5 uL of room temperature stop solution was added and wells were shaken/mixed again. After 2-5 minutes, the cell lysate plate was transferred to ice for RT-qPCR reaction setup. The lysates could also be frozen at −80° C. for later use.
(§6) In some cases, a direct lysis buffer was used. An appropriate volume of 3×lysis buffer (10 mM Tris, 150 mM NaCl, 1.5%-2.5% Igepal and 0.1-1 U/uL RNAsin, pH 7.4) was directly added to either K562 or A673 cells in media and mixed by pipetting 3 times. The plates were then incubated at room temperature with shaking/rocking for 20-50 minutes to allow for lysis to take place. After this time, the cell lysate plate was transferred to ice to set up for the RT-qPCR reactions. The lysates could also be frozen at −80° C. for later use. […]

SMN2 mRNA = assay: Gene panel canonical junction qPCR assay, SMN2 CJ mRNA decrease; assay type: cell-based, human
Method: as §1
(§7) The data analysis was performed by first determining the ΔCt vs the housekeeper gene. This ΔCt was then normalized against the DMSO control (ΔΔCt) and converted to RQ (relative quantification) using the 2^(−ΔΔCt) equation. The RQ were then converted to a percentage response by arbitrarily setting an assay window of 3.5 and 4.0 ΔCt for HTT-CJ and MYB-CJ respectively and an assay window of 9 and 3 ΔCt for HTT-AJ and MYB-AJ in 96 well format (50,000 K562 cells/well and 15,000 A673 cells per well) and an assay window of 3 and 4 ΔCt for HTT-CJ and MYB-CJ respectively and an assay window of 5 and 3 ΔCt for HTT-AJ and MYB-AJ respectively in 384 well format (8,000 K562 cells/well example). […] The percentage response was then fitted to the 4 parametric logistic equation to evaluate the concentration dependence of compound treatment. The increase in AJ mRNA is reported as AC50 (compound concentration having […] in AJ increase) while the decrease in CJ mRNA levels is reported as IC50 (compound concentration having 50) response in CJ decrease).
(§8) Additional studies were carried out for a larger panel of genes using the protocol provided above. The junction between flanking upstream and downstream exons was used to design canonical junction qPCR assays. At least one of the forward primer, reverse primer or the CY5-labeled 5′ nuclease probe (with 3′ quencher such as ZEN/Iowa Black FQ) was designed to overlap with the exon junction to capture the CJ mRNA transcript. BLAST was used to confirm the specificity of the probeset and parameters such as melting temperature, GC content, amplicon size, and primer dimer formation are considered during their design. Data for the decrease in CJ mRNA levels for four exemplary genes (HTT, SMN2, MYB, and Target C) analyzed in this panel are reported as IC50 (compound concentration having […] in CJ decrease).
(§9) A summary of the results from the panel is illustrated in Tables 5A and 51B, wherein “A” represents an IC50 of less than 100 nM; “B” represents an IC50 of between 100 nM and 1 μM; and “C” represents an IC50 of between 1 μM and 10 μM; and “D” represents an IC50 of greater than 10 μM.

HTT mRNA [2] = assay: Gene panel canonical junction qPCR assay, HTT CJ mRNA decrease; assay type: cell-based, human
Method: as §1, §7, §8, §9

MYB mRNA [3] = assay: Gene panel canonical junction qPCR assay, MYB CJ mRNA decrease; assay type: cell-based, human
Method: as §1, §7, §8, §9

HTT mRNA [4] = assay: Splicing RT-qPCR assay, HTT canonical (CJ) and alternative (AJ) junction mRNA; assay type: cell-based; conditions: Homo sapiens, A673 or K562 cells, 24 hours
Method: as §1, §2, §3, §4, §5, §6

Target C mRNA = assay: Gene panel canonical junction qPCR assay, Target C CJ mRNA decrease; assay type: cell-based; conditions: Homo sapiens, decrease in CJ mRNA levels, read-out: Target C IC50
Method: as §1, §7, §8, §9

[5] = decrease in canonical junction mRNA
[6] = increase in alternative junction mRNA
[7] = Homo sapiens, decrease in CJ mRNA levels, read-out: SMN2 IC50
[8] = Homo sapiens, decrease in CJ mRNA levels, read-out: HTT IC50
[9] = Homo sapiens, decrease in CJ mRNA levels, read-out: MYB IC50

Structure (SMILES)	IC50 (SMN2 mRNA; [7]) [nM]	IC50 (Target C mRNA) [nM]	IC50 (HTT mRNA [2]; [8]) [nM]	IC50 (MYB mRNA [3]; [9]) [nM]	further results
Cc1cn2cc(NC(=O)c3ccc(N4CCN(C)C(C)C4)c4ccnnc34)cc(F)c2n1 (stereo not shown) [Compound 129]					IC50 (MYB mRNA [1]; [5]): 100 to 1000 nM; AC50 (MYB mRNA [1]; [6]): 100 to 1000 nM; IC50 (SMN2 mRNA; Homo sapiens, canonical junction qPCR, read-out: SMN2 IC50 (decrease in CJ mRNA levels)): < 100 nM; IC50 (HTT mRNA [2]; Homo sapiens, canonical junction qPCR, read-out: HTT IC50 (decrease in CJ mRNA levels)): 1000 to 10000 nM; IC50 (MYB mRNA [3]; Homo sapiens, canonical junction qPCR, read-out: MYB IC50 (decrease in CJ mRNA levels)): 100 to 1000 nM; IC50 (HTT mRNA [4]; [5]): 1000 to 10000 nM; AC50 (HTT mRNA [4]; [6]): 1000 to 10000 nM
Cc1cn2nc(NC(=O)c3sc([C@@H]4CCN[C@H](C)C4)cc3F)cc(C)c2n1 [Compound 576]	100 to 1000	100 to 1000	100 to 1000	< 100	
Cc1cn2nc(NC(=O)c3sc([C@H]4CCN[C@@H](C)C4)cc3F)cc(C)c2n1 [Compound 577]	1000 to 10000	100 to 1000	100 to 1000	100 to 1000	
Cc1cn2nc(NC(=O)c3sc([C@H]4CCN[C@H](C)C4)cc3F)cc(C)c2n1 [Compound 578]	1000 to 10000	1000 to 10000	100 to 1000	< 100	
Cc1cn2nc(NC(=O)c3sc([C@@H]4CCN[C@@H](C)C4)cc3F)cc(C)c2n1 [Compound 579]	100 to 1000	100 to 1000	< 100	< 100	
Cc1cn2cc(-c3cc(F)c(C(=O)N[C@H]4CCN[C@H](C)C4)s3)nc2c(C)n1 [Compound 583]	> 10000	> 10000	> 10000	1000 to 10000	
Cc1cn2cc(NC(=O)c3sc([C@@H]4CCN[C@H](C)C4)cc3F)cc(F)c2n1 [Compound 589]	1000 to 10000	1000 to 10000	100 to 1000	< 100	
Cc1cn2cc(NC(=O)c3sc([C@H]4CCN[C@@H](C)C4)cc3F)cc(F)c2n1 [Compound 590]		100 to 1000	100 to 1000	100 to 1000	
COc1cc(N2CCNC(C)C2)sc1C(=O)Nc1cc(F)c2nc(C)cn2c1 (stereo not shown) [Compound 597]		> 10000	> 10000	100 to 1000	
Cc1cn2cc(NC(=O)c3sc(N4CCNC(C)C4)cc3F)cc(F)c2n1 (stereo not shown) [Compound 601]		1000 to 10000	1000 to 10000	100 to 1000	
CCC1CN(c2cc(F)c(C(=O)Nc3cc(F)c4nc(C)cn4c3)s2)CCN1 (stereo not shown) [Compound 603]		> 10000	1000 to 10000	100 to 1000	
Cc1cn2cc(NC(=O)c3sc(N4C[C@H]5CC[C@@H](C4)N5)cc3F)cc(F)c2n1 [Compound 616]	> 10000		> 10000	1000 to 10000	
Cc1cn2cc(NC(=O)c3sc(C4C[C@@H](C)N[C@@H](C)C4)cc3F)cc(F)c2n1 (stereo partly shown) [Compound 620]	1000 to 10000		1000 to 10000	100 to 1000	
Cc1nc2c(F)cc(NC(=O)c3sc(N4CCNC(C)C4)cc3F)cc2s1 (stereo not shown) [Compound 638]	< 100		> 10000	> 10000	
Cc1cn2cc(NC(=O)c3sc(C4CCNCC4)c(C)c3F)cc(F)c2n1 [Compound 649]	1000 to 10000		100 to 1000	100 to 1000	
Cc1cn2cc(NC(=O)c3sc(C4CCNCC4)cc3F)cc(F)c2n1 [Compound 650]					IC50 (SMN2 mRNA; decrease in CJ mRNA levels, read-out: SMN2 IC50): > 10000 nM; IC50 (HTT mRNA [2]; decrease in CJ mRNA levels, read-out: HTT IC50): 1000 to 10000 nM; IC50 (MYB mRNA [3]; decrease in CJ mRNA levels, read-out: MYB IC50): 100 to 1000 nM
Cc1cn2cc(NC(=O)c3sc(C4CCNCC4)cc3F)cc(Cl)c2n1 [Compound 654]	1000 to 10000		100 to 1000	1000 to 10000	
Cn1cc2ccc(NC(=O)c3sc(C4CCNCC4)cc3F)cc2n1 [Compound 655]	1000 to 10000		100 to 1000	< 100	
Cn1cc2c(F)cc(NC(=O)c3sc(C4CCNCC4)cc3F)cc2n1 [Compound 656]	1000 to 10000		100 to 1000	< 100	
Cc1cn2cc(NC(=O)c3cc(F)c(C4CCNCC4)s3)cc(F)c2n1 [Compound 661]		> 10000	> 10000	1000 to 10000	
Cc1cn2nc(NC(=O)c3sc(C4CCNCC4)cc3F)cc2c(C)n1 [Compound 664]	> 10000		> 10000	> 10000	
Cc1cn2cc(NC(=O)c3cc(Cl)c(C4CCNCC4)s3)cc(F)c2n1 [Compound 666]	1000 to 10000		1000 to 10000	100 to 1000	
Cc1cn2cc(NC(=O)c3sc(C4CCNCC4)cc3F)nc2c(C)n1 [Compound 667]	> 10000		> 10000	> 10000	
Cc1cn2cc(NC(=O)c3sc([C@@H]4CCN[C@H](C)C4)cc3F)cc(C(F)(F)F)c2n1 [Compound 668]	> 10000		> 10000	1000 to 10000	
Cc1cn2cc(NC(=O)c3sc([C@H]4CCN[C@H](C)C4)cc3F)cc(C(F)(F)F)c2n1 [Compound 669]	> 10000		100 to 1000	< 100	
Cc1cn2cc(NC(=O)c3sc(C4CCNCC4)c(C#N)c3Cl)cc(F)c2n1 [Compound 670]	> 10000		1000 to 10000	100 to 1000	
Cc1cn2cc(-c3sc(C(=O)NC4CCNCC4)c(Cl)c3C#N)cc(F)c2n1 [Compound 671]	> 10000		1000 to 10000	100 to 1000	
